Patent US20240002354A1, “ANTIDIABETIC COMPOUNDS AND COMPOSITIONS” (REZUBIO PHARMACEUTICALS CO., LTD, priority 2020, published 2024)

target: T1, GPR40 (Homo sapiens, UniProt O14842); assay: IP1 accumulation assay (Cisbio IP-One HTRF) in HEK293 cells stably expressing GPR40; assay type: cell-based; settings: HEK293 cells stably expressing GPR40, 37° C. for 2 hours, % Effect relative to AMG-1638 positive control
T1 construct: expressed in transfected cells
Description: IP1 accumulation assay was used to evaluate the potency of compounds. HEK293 cells stably expressing GPR40 were cultured in 5% CO2 incubator (ThermoFisher) in maintenance media (Dulbecco's modified Eagle's medium with 4.5 g/L of glucose, 10% fetal bovine serum, 100 μg/mL Hygromycin, and Penicillin (100 U/mL)/Streptomycin (100 μg/mL)) till 100% confluency. Cells were harvested freshly, spun down at 300×g for 5 min, and resuspended in pre-warmed 1× stimulant buffer from Cisbio IP-One HTRF Detection kit (Cisbio). Cell density was adjusted to 2.0×10^6 cells/mL. DMSO was used as blank control and AMG-1638 (CAS #: 1142214-62-7) as positive control. Compounds were prepared at 10 mM in DMSO and 5 nL of 3× serially diluted compounds (10 concentrations) were added to each well of the 384-LDV assay plate (Corning) by using ECHO 550 (Labcyte). Five μL of cells in suspension were transferred into each well by using Multidrop Combi Reagent Dispenser (ThermoFisher). Assay plate was then sealed and incubated at 37° C. for 2 hours. IP-d2 reagent and anti-IP1 reagent were prepared following the manual (Cisbio). Five μL of IP1-d2 and then 5 μL of anti-IP1 antibody was added to each well sequentially. Assay plate was incubated at room temperature for 60 min and then read at 665 nm/615 nm on an Envision plate reader (PerkinElmer). The ratio of values obtained at 665 nm and 615 nm was used for calculation of IP1 accumulation: % Effect=(Ratiosample−Ratioblank)/(RatioAMG-1638−Ratioblank)×100. Dose curve was fitted and EC50 of each compound was calculated by using XLFit.

T1 sequence (O14842 whole entry): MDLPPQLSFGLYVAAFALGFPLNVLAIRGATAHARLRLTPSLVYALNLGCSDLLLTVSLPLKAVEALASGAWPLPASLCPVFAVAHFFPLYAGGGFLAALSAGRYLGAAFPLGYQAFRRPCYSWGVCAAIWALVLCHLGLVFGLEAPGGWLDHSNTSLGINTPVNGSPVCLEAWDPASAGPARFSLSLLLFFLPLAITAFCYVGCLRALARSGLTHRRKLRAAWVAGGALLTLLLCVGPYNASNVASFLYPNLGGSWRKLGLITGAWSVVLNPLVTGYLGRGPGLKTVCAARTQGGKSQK

| SMILES | EC50 [nM] |
| --- | --- |
| COC(=O)CCCCCCCCCCCCCCCCCc1cn(CCCCCOC(c2cc(COc3cccc([C@@H](CC(=O)O)C4CC4)c3)ccc2-c2cc(OC)ccc2F)C(C)(C)C)nn1 (some centres unmarked) [Compound No. 235] | ≥ 5000 |
| C[C@H](C(=O)O)[C@H](c1ccc2c(c1)O[C@H](C1CCN(Cc3cc(N=[N+]=[N-])ccc3OC(F)(F)F)CC1)CC2)C1CC1 [compound 194, (2S,3R)-3-((S)-2-(1-(5-azido-2-(trifluoromethoxy)benzyl)piperidin-4-yl)chroman-7-yl)-3-cyclopropyl-2-methylpropanoic acid] | 1 to 50 |
| CCCCCCc1cn(-c2ccc(OC(F)(F)F)c(CN3CCC([C@H]4CCc5ccc([C@H](C6CC6)[C@H](C)C(=O)O)cc5O4)CC3)c2)nn1 [compound 188, (2S,3R)-3-cyclopropyl-3-((R)-2-(1-(5-(4-hexyl-1H-1,2,3-triazol-1-yl)-2-(trifluoro-methoxy)benzyl)piperidin-4-yl)chroman-7-yl)-2-methylpropanoic acid] | 1 to 50 |
| COc1ccc(F)c(-c2ccc(COc3cccc([C@@H](CC(=O)O)C4CC4)c3)cc2C(OC)C(C)(C)CN=[N+]=[N-])c1 (stereo partly drawn) [Compound No. 236, (3S)-3-(3-((2-(3-azido-1-methoxy-2,2-dimethylpropyl)-2′-fluoro-5′-methoxy-[1,1′-biphenyl]-4-yl)methoxy)phenyl)-3-cyclopropylpropanoic acid] | 1 to 50 |
| COc1ccc2cc(CN=[N+]=[N-])oc2c1CN1CCC([C@H]2CCc3ccc([C@H](C4CC4)[C@H](C)C(=O)O)cc3O2)CC1 [compound 207, (2S,3R)-3-((R)-2-(1-((2-(azidomethyl)-6-methoxybenzofuran-7-yl)methyl)-piperidin-4-yl)chroman-7-yl)-3-cyclopropyl-2-methylpropanoic acid] | ≥ 5000 |
| CCCCCCn1cc(-c2ccc(OC(F)(F)F)c(CN3CCC([C@H]4CCc5ccc([C@H](C6CC6)[C@H](C)C(=O)O)cc5O4)CC3)c2)nn1 [compound 187, (2S,3R)-3-cyclopropyl-3-((R)-2-(1-(5-(1-hexyl-1H-1,2,3-triazol-4-yl)-2-(trifluoro-methoxy)benzyl)piperidin-4-yl)chroman-7-yl)-2-methylpropanoic acid] | 50 to 250 |
| C#CCOc1cc(COc2cccc([C@H](CC)CC(=O)O)c2)ccc1-c1cc(OC)ccc1F [Compound No. 211] | 1000 to 5000 |
| C[C@H](C(=O)O)[C@H](c1ccc2c(c1)O[C@@H](C1CCN(Cc3cc(CN=[N+]=[N-])ccc3OC(F)(F)F)CC1)CC2)C1CC1 [Compound 201] | 1 to 50 |
| COc1ccc(F)c(-c2ccc(COc3cccc([C@@H](CC(=O)O)C4CC4)c3)cc2C(OCCCCN=[N+]=[N-])C(C)(C)C)c1 (stereo partly drawn) [Compound No. 232, (3S)-3-(3-((2-(1-(4-azidobutoxy)-2,2-dimethylpropyl)-2′-fluoro-5′-methoxy-[1,1′-biphenyl]-4-yl)methoxy)phenyl)-3-cyclopropylpropanoic acid] | 1 to 50 |
| C[C@H](C(=O)O)[C@H](c1ccc2c(c1)O[C@@H](C1CCN(Cc3cc(-c4cn(CCCCCCCCCCCCCCCCCC(=O)OCc5ccccc5)nn4)ccc3OC(F)(F)F)CC1)CC2)C1CC1 [compound 210, (2S,3R)-3-((R)-2-(1-(5-(1-(18-(benzyloxy)-18-oxooctadecyl)-1H-1,2,3-triazol-4-yl)-2-(trifluoromethoxy)benzyl)piperidin-4-yl)chroman-7-yl)-3-cyclopropyl-2-methylpropanoic acid] | 50 to 250 |
| COc1ccc(F)c(-c2ccc(COc3cccc([C@@H](CC(=O)O)C4CC4)c3)cc2C(OCCCCCn2cc(CCCCCCCCCCCCCCCCCC(=O)O)nn2)C(C)(C)C)c1 (some centres unmarked) [Compound No. 234] | 250 to 1000 |
| CCCCCCn1cc(COc2ccc(OC(F)(F)F)c(CN3CCC([C@H]4CCc5ccc([C@H](C6CC6)[C@H](C)C(=O)O)cc5O4)CC3)c2)nn1 [compound 190, (2S,3R)-3-cyclopropyl-3-((R)-2-(1-(5-((1-hexyl-1H-1,2,3-triazol-4-yl)methoxy)-2-(trifluoro-methoxy)benzyl)piperidin-4-yl)chroman-7-yl)-2-methylpropanoic acid] | 50 to 250 |
| COc1ccc(F)c(-c2ccc(COc3cccc([C@@H](CC(=O)O)C4CC4)c3)cc2C(C)(C)N=[N+]=[N-])c1 [Compound No. 216, (S)-3-(3-((2-(2-azidopropan-2-yl)-2′-fluoro-5′-methoxy-[1,1′-biphenyl]-4-yl)methoxy)phenyl)-3-cyclopropylpropanoic acid] | 1 to 50 |

More lines, now with the values ahead:

| EC50 [nM] | SMILES |
| --- | --- |
| 250 to 1000 | CCCCCCc1cn(C(C)(C)c2cc(COc3cccc([C@@H](CC(=O)O)C4CC4)c3)ccc2-c2cc(OC)ccc2F)nn1 [Compound No. 218, (S)-3-cyclopropyl-3-(3-((2′-fluoro-2-(2-(4-hexyl-1H-1,2,3-triazol-1-yl)propan-2-yl)-5′-methoxy-[1,1′-biphenyl]-4-yl)methoxy)phenyl)propanoic acid] |
| 1 to 50 | COc1ccc(F)c(-c2ccc(COc3cccc([C@@H](CC(=O)O)C4CC4)c3)cc2CC(C)(C)CN=[N+]=[N-])c1 [Compound No. 237, (S)-3-(3-((2-(3-azido-2,2-dimethylpropyl)-2′-fluoro-5′-methoxy-[1,1′-biphenyl]-4-yl)methoxy)phenyl)-3-cyclopropylpropanoic acid] |
| 250 to 1000 | COc1ccc(F)c(-c2ccc(COc3cccc([C@@H](CC(=O)O)C4CC4)c3)cc2C(C)(C)COCc2cn(CCCCCCCCCCCCCCCCCC(=O)O)nn2)c1 [Compound No. 230] |
| 50 to 250 | CCCCCCCCCCc1ccc(OC(F)(F)F)c(CN2CCC([C@H]3CCc4ccc([C@H](C5CC5)[C@H](C)C(=O)O)cc4O3)CC2)c1 [compound 205, (2S,3R)-3-cyclopropyl-3-((R)-2-(1-(5-decyl-2-(trifluoromethoxy)benzyl)piperidin-4-yl)chroman-7-yl)-2-methylpropanoic acid] |
| 50 to 250 | CCCCCCc1cn(CC(C)(C)c2cc(COc3cccc([C@@H](CC(=O)O)C4CC4)c3)ccc2-c2cc(OC)ccc2F)nn1 [Compound No. 225, (S)-3-cyclopropyl-3-(3-{2′-fluoro-2-[2-(4-hexyl-[1,2,3]triazol-1-yl)-1,1-dimethyl-ethyl]-5′-methoxy-biphenyl-4-ylmethoxy}-phenyl)-propionic acid] |
| 1000 to 5000 | CCCCCCc1cn(Cc2cc3ccc(OC)c(CN4CCC([C@H]5CCc6ccc([C@H](C7CC7)[C@H](C)C(=O)O)cc6O5)CC4)c3o2)nn1 [compound 209, (2S,3R)-3-cyclopropyl-3-((R)-2-(1-((2-((4-hexyl-1H-1,2,3-triazol-1-yl)methyl)-6-methoxybenzofuran-7-yl)methyl)piperidin-4-yl)chroman-7-yl)-2-methylpropanoic acid] |
| 1 to 50 | C#Cc1ccc(OC(F)(F)F)c(CN2CCC([C@H]3CCc4ccc([C@H](C5CC5)[C@H](C)C(=O)O)cc4O3)CC2)c1 [compound 193, (2S,3R)-3-cyclopropyl-3-((R)-2-(1-(5-ethynyl-2-(trifluoromethoxy)benzyl)piperidin-4-yl)-chroman-7-yl)-2-methylpropanoic acid] |
| 1000 to 5000 | CCCCCCn1cc(COc2cc(COc3cccc([C@H](CC)CC(=O)O)c3)ccc2-c2cc(OC)ccc2F)nn1 [Compound No. 213] |
| 1 to 50 | COc1ccc(F)c(-c2ccc(COc3cccc([C@@H](CC(=O)O)C4CC4)c3)cc2C(C)(C)CN=[N+]=[N-])c1 [Compound No. 224] |
| ≥ 5000 | COC(=O)CCCCCCCCCCCCCCCCCc1cn(CC(C)(C)c2cc(COc3cccc([C@@H](CC(=O)O)C4CC4)c3)ccc2-c2cc(OC)ccc2F)nn1 [Compound No. 227, (S)-3-cyclopropyl-3-(3-((2′-fluoro-5′-methoxy-2-(1-(4-(18-methoxy-18-oxooctadecyl)-1H-1,2,3-triazol-1-yl)-2-methylpropan-2-yl)-[1,1′-biphenyl]-4-yl)methoxy)phenyl)propanoic acid] |
| 1 to 50 | CCCCCCc1cn(CCc2ccc(OC(F)(F)F)c(CN3CCC([C@H]4CCc5ccc([C@H](C6CC6)[C@H](C)C(=O)O)cc5O4)CC3)c2)nn1 [compound 189, (2S,3R)-3-cyclopropyl-3-((R)-2-(1-(5-(2-(4-hexyl-1H-1,2,3-triazol-1-yl)ethyl)-2-(trifluoro-methoxy)benzyl)piperidin-4-yl)chroman-7-yl)-2-methylpropanoic acid] |
| 1 to 50 | CCCCCCc1cn(Cc2ccc(OC(F)(F)F)c(CN3CCC([C@H]4CCc5ccc([C@H](C6CC6)[C@H](C)C(=O)O)cc5O4)CC3)c2)nn1 [compound 195, (2S,3R)-3-cyclopropyl-3-((R)-2-(1-(5-((4-hexyl-1H-1,2,3-triazol-1-yl)methyl)-2-(trifluoro-methoxy)benzyl)piperidin-4-yl)chroman-7-yl)-2-methylpropanoic acid] |
| 1 to 50 | C#CC(C)(C)c1cc(COc2cccc([C@@H](CC(=O)O)C3CC3)c2)ccc1-c1cc(OC)ccc1F [Compound No. 217, (S)-3-cyclopropyl-3-(3-((2′-fluoro-5′-methoxy-2-(2-methylbut-3-yn-2-yl)-[1,1′-biphenyl]-4-yl)methoxy)phenyl)propanoic acid] |
